Like-named read-outs stand apart in the source and are kept apart here. One block for each compound: values may come before it.
Columns and labels:
PPARγ = conditions: cited from earlier work
human PPARγ (hPPARγ) = target: T1, human PPARγ (hPPARγ) (Homo sapiens, UniProt P37231); assay: Transactivation reporter assay (chimeric GAL4-PPAR reporter-gene assay in CV-1 cells); type: cell-based; conditions: for EC50: CV-1 cells, 48 h, luciferase, triplicate
T1 construct: expressed in transfected cells; host or cells: CV-1 cells
T1 sequence (P37231 238-503 limits assumed): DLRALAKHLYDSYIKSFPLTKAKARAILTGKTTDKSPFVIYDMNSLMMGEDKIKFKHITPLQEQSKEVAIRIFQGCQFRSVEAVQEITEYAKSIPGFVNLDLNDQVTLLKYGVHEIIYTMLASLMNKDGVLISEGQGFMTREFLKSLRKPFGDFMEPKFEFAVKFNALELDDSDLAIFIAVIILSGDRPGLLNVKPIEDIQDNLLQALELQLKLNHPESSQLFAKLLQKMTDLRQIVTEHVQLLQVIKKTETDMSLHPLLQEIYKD
Experimental: Briefly, chimeric receptor expression plasmid pcDNA3-hPPARγ/GAL4 was prepared by inserting the yeast GAL4 transcription factor DNA-binding domain adjacent to the hPPARγ LBD domain. The reporter plasmid, p(UAS)5-tk-luc, was generated by inserting five copies of the GAL4 response element upstream of the herpesvirus minimal thymidine kinase promoter and the luciferase reporter gene. The chimeric receptor expression plasmid and reporter plasmid were cotransfected into CV-1 cells. The transfected cells were cultured with or without each tested compound for 48 h and then steady-state luminescence intensity was measured with a microplate luminometer (Turner Biosystems). All compounds were purchased from Sigma-Aldrich and ChemPartner, and dissolved in dimethyl sulfoxide (<0.1% v/v). Each assay was carried out in triplicate.

[1] = literature value, ref Xu et al. [2001], read-out: Agonistic activity EC50

SMILES: COC(=O)/C(=C/c1cc(OC)cc(OC)c1)c1ccc(Oc2ccc(CC3SC(=O)NC3=O)cc2)cc1 (stereo not drawn) [CLX-0921]
EC50 (PPARγ; literature value, ref Dey et al. [2003], read-out: Agonistic activity EC50): 284 nM

SMILES: CCCCc1nc(Cl)c(C=O)n1Cc1ccc(-c2ccccc2-c2nn[nH]n2)cc1 [EXP3179]
EC50 (PPARγ; literature value, ref Schupp et al. [2006], read-out: Agonistic activity EC50): 17000 nM

SMILES: CC1(COc2ccc(CC3SC(=O)NC3=O)cc2)CCCCC1 (stereo not drawn) [Ciglitazone]
EC50 (PPARγ; literature value, ref Willson et al. [1996], read-out: Agonistic activity EC50): 3000 nM

Agonistic intensity (human PPARγ (hPPARγ)): 78% | EC50 (human PPARγ (hPPARγ)): 350 ± 60 nM
SMILES: O=C(N/N=C/c1ccc(-c2ccc([N+](=O)[O-])cc2)o1)c1ccccc1 [ZINC44179]

SMILES: CN(CCOc1ccc(CC2SC(=O)NC2=O)cc1)c1ccccn1 (stereo not drawn) [Rosiglitazone]
EC50 (PPARγ; [1]): 18 nM | EC50 (PPARγ; previous report, ref Xu et al. [2001], read-out: EC50 (converted)): 18 nM

Agonistic intensity (human PPARγ (hPPARγ)): 116% | EC50 (human PPARγ (hPPARγ)): 84 ± 15 nM
SMILES: CC1=NN(CN2CCOCC2)C(=O)/C1=N\Nc1ccc(C(=O)O)cc1 [ZINC13408172]

SMILES: CC(C)O[C@@H](Cc1cccc(OC[C@H](F)COc2ccc(Cl)cc2C#N)c1)C(=O)O [E3030]
EC50 (PPARγ; literature value, ref Kasai et al. [2008], read-out: Agonistic activity EC50): 34 nM

SMILES: C/C(=C/C(=O)c1ccccc1)N[C@@H](Cc1ccc(OCCc2nc(-c3ccccc3)oc2C)cc1)C(=O)O [GW409544]
EC50 (PPARγ; [1]): 0.28 nM

Source: publication PMC6130577, “Rational screening of peroxisome proliferator-activated receptor-γ agonists from natural products: potential therapeutics for heart failure” (Pharmaceutical Biology, 2016)
